According to patent US11974976B2, “Animal feeds and feed premixes containing betaine hydrochloride and a phytase” (Rural Chemical Industries (AUST) PTY LTD, priority 2013, dated 2024):
Where a name gives a salt, the structure may show the parent alone. Marks after values point to notes of the source that are not given here.

Tests used:
[1] = test system: male Ross 308 chicks; experiment: Mortality/cull rates to 37 days post-hatch; settings: phytase 500 FTU/kg, betaine 2.75 g/kg
Experimental: The composition and nutrient specifications of the three basal starter (1-16 days post-hatch) and finisher (17-37 days post-hatch) diets are shown in Table 1. An NSP-degrading enzyme (Econase XT) was included across all the wheat-based diets to reflect standard practice and the finisher diets contained 20 g/kg Celite as an acid insoluble ash dietary marker. The starter diets were fed as mash, while the finisher diets were steam-pelleted at a conditioning temperature of 85° C. The NC1 diets were the ‘phytase-modified’ diets with formulated with reductions of 1.4 g/kg Ca and 1.5 g/kg P in the starter diets, which mainly stemmed from the elimination of dicalcium phosphate. The corresponding reductions in the finisher diets were 1.2 g/kg Ca and 1.4/kg P. The NC2 diets were the ‘betaine-modified’ diets in which energy density, methionine and choline levels were reduced mainly by lower inclusion levels of canola oil and synthetic methionine and the elimination of choline chloride relative to the PC diets. The energy densities were reduced from 12.55 to 12.24 MJ/kg in the starter diets and from 12.97 to 12.66 MJ/kg in the finisher diets. Methionine levels were reduced from 4.44 to 3.19 g/kg in the starter diets and from 4.18 to 2.93 g/kg in the finisher diets. Exogenous phytase (Quantum® Blue; AB Vista) was included in the relevant diets at 100 g per tonne or 500 FTU/kg phytase activity and, similarly, betaine HCl (Hi Beta″, 970 g/kg betaine hydrochloride; Rural Chemical Industries) was included in the diets at 2.75 g/kg.
The parameters evaluated included growth performance (weight gains, feed intakes, feed conversion ratios; FCR) from 1 to 16, 17 to 37 and 1 to 37 days post-hatch, 1 to 37 days weight gain-corrected FCR, mortality/cull rates, percentage toe ash, nitrogen (N) excretion and nutrient utilisation. Nutrient utilisation included apparent metabolisable energy (AME), expressed as both MJ/kg and MJ/day, N retention and N-corrected AME (AMEn). Also, breast weights in absolute and relative (% yield) terms, abdominal fat pad weights and pH of gizzard contents were determined. However, for reasons of practical expediency, absolute breast weights were determined on a ‘bone-in’ basis from birds that had not been de-feathered and this approach inflates both the absolute weight and yield; nevertheless, the data remains indicative. The experimental data was obtained and calculated via standard procedures followed by the Poultry Research Foundation. While the various procedures are not detailed in this report the majority of them have been described in detail (Selle et al., 2003b) previously.
The experimental data was statistically analysed as a 3×2×2 factorial array of dietary treatments. […]

[2] = test system: male Ross 308 chicks; experiment: Nutrient utilisation (AME, N retention, N-corrected AME); assay type: in vivo, broiler chicks; settings: for Increase in AMEn on addition to diet: diet type x betaine HCl interaction; for AME / AME (energy intake) / AMEn / N retention: phytase 500 FTU/kg, betaine 2.75 g/kg
Excerpt: Energy that is not metabolisable is ‘excreted energy’. Another way of defining ‘metabolisable energy’ is to refer to an ‘apparent metabolisable energy value’ or ‘AME value’. An ‘AME value’ is simply the gross energy of the feed consumed minus the gross energy contained in the faeces, urine, and gaseous products of digestion.

[3] = main effect across diets, hydrochloride
[4] = main effect across diets, listed as betaine, hydrochloride

C[N+](C)(C)CC(=O)O [Betaine, betaine hydrochloride]
Mortality and cull rates ([1]; NC1 diets): 4.18% | Mortality and cull rates ([1]; NC2 diets): 6.25% | Mortality and cull rates ([1]; PC diets): 4.18% | Mortality and cull rates ([1]; main effect across diets): 4.17% | AME, diet type x betaine interaction mean ([2]; NC1 diets): 13.10 mJ/kg | AMEn, diet type x betaine HCl interaction mean ([2]; NC1 diets): 11.36 mJ/kg | Increase in AMEn on addition to diet ([2]; NC1 diets): 1.01 mJ | Increase in AME on addition to diet ([2]; NC1 diets, diet type x betaine interaction): 0.78 mJ | Increase in AME relative to control diet ([2]; NC1 diets, individual addition): 0.44 mJ | AME ([2]; NC1 diets): 12.77 MJ/kg DM | AME (energy intake) ([2]; NC1 diets): 1.868 mJ/day | AMEn ([2]; NC1 diets): 11.25 MJ/kg DM | N retention ([2]; NC1 diets): 52.14% | Increase in AMEn on addition to diet ([2]; NC2 diets): 0.17 mJ | Decrease in AME on addition to diet ([2]; NC2 diets, diet type x betaine interaction): 0.08 mJ | AME ([2]; NC2 diets): 12.86 MJ/kg DM | AME (energy intake) ([2]; NC2 diets): 2.061 mJ/day | AMEn ([2]; NC2 diets): 11.43 MJ/kg DM | N retention ([2]; NC2 diets): 49.25% | Increase in AMEn on addition to diet ([2]; PC diets): 0.23 mJ | Increase in AME on addition to diet ([2]; PC diets, diet type x betaine interaction): 0.20 mJ | AME ([2]; PC diets): 13.29 MJ/kg DM | AME (energy intake) ([2]; PC diets): 2.077 mJ/day | AMEn ([2]; PC diets): 11.69 MJ/kg DM | N retention ([2]; PC diets): 52.05% | AME (energy intake), phytase x betaine interaction mean ([2]; across diet types): 2.002 mJ/day | AMEn, phytase x betaine HCl interaction mean ([2]; across diet types): 11.46 mJ/kg | Increase in AMEn by betaine HCl ([2]; in the absence of phytase): 0.20 mJ | Decrease in AME on betaine addition ([2]; in the absence of phytase, across diet types): 0.08 mJ | Increase in AMEn by betaine HCl ([2]; in the presence of phytase): 0.74 mJ | Increase in AME on betaine addition ([2]; in the presence of phytase, across diet types): 0.67 mJ | Increase in AME ([2]; main effect): 0.30 mJ/kg | N retention ([2]; main effect across diets): 52.02% | AME [2, 3]: 13.33^b MJ/kg DM | AME (energy intake) [2, 3]: 2.126 mJ/day | AMEn [2, 3]: 11.79^b MJ/kg DM | AMEn ([2]; main effect across diets, listed as betaine HCl, hydrochloride): 11.79 MJ/kg DM | AME [2, 4]: 13.33 MJ/kg DM | AME (energy intake) [2, 4]: did not influence
